Source: paper PMC5218480 (PLoS ONE, 2017)

System: MV-4-11 cells
Test: Gene expression microarray analysis (Affymetrix PrimeView) and GSEA
Format: cell-based, human
Parameters: RFU PODN (11730768_x_at) / Fold change /veh PODN (11730768_x_at) / RFU LINC00158 (11744669_a_at) / Fold change /veh LINC00158 (11744669_a_at) / RFU DUSP10 (11751237_a_at) / Fold change /veh DUSP10 (11751237_a_at) / RFU ID3 (11757404_x_at) / Fold change /veh ID3 (11757404_x_at) / RFU PLEKHG5 (11737974_s_at) / Fold change /veh PLEKHG5 (11737974_s_at) / RFU LRRC4B (11730491_at) / Fold change /veh LRRC4B (11730491_at) / RFU GIMAP4 (11747438_a_at) / Fold change /veh GIMAP4 (11747438_a_at) / RFU KRT8 (11758183_x_at) / Fold change /veh KRT8 (11758183_x_at) / RFU CNN1 (11734310_a_at) / Fold change /veh CNN1 (11734310_a_at) / RFU VPS37D (11726825_at) / Fold change /veh VPS37D (11726825_at) / RFU C10orf10 (11716522_x_at) / Fold change /veh C10orf10 (11716522_x_at) / RFU KIR2DL2 /// KIR2DL4 /// KIR2DL5A /// KIR2DL5B /// KIR2DS1 /// KIR2DS2 /// KIR2DS3 /// KIR2DS4 /// KIR3DL3 /// KIR3DL3 /// KIR3DS1 (11738374_at) / Fold change /veh KIR2DL2 /// KIR2DL4 /// KIR2DL5A /// KIR2DL5B /// KIR2DS1 /// KIR2DS2 /// KIR2DS3 /// KIR2DS4 /// KIR3DL3 /// KIR3DL3 /// KIR3DS1 (11738374_at) / RFU C1QL1 (11718748_at) / Fold change /veh C1QL1 (11718748_at) / RFU TMPRSS4 (11747572_a_at) / Fold change /veh TMPRSS4 (11747572_a_at) / RFU HAMP (11756126_x_at) / Fold change /veh HAMP (11756126_x_at) / RFU RNFT2 (11725882_a_at) / Fold change /veh RNFT2 (11725882_a_at) / RFU NR4A2 (11747474_a_at) / Fold change /veh NR4A2 (11747474_a_at) / RFU ABCC12 (11746883_a_at) / Fold change /veh ABCC12 (11746883_a_at) / RFU TMEM136 (11760407_x_at) / Fold change /veh TMEM136 (11760407_x_at) / RFU CLDN22 /// WWC2 (11732394_at) / Fold change /veh CLDN22 /// WWC2 (11732394_at) / RFU HLA-DPB1 (11760878_x_at) / Fold change /veh HLA-DPB1 (11760878_x_at) / RFU SPINT1 (11716480_a_at) / Fold change /veh SPINT1 (11716480_a_at) / RFU GAP43 (11754022_s_at) / Fold change /veh GAP43 (11754022_s_at) / RFU A4GNT (11735810_at) / Fold change /veh A4GNT (11735810_at) / RFU PRB3 (11715151_x_at) / Fold change /veh PRB3 (11715151_x_at) / RFU TUBB4B (11761932_at) / Fold change /veh TUBB4B (11761932_at) / RFU CAPN14 (11732068_a_at) / Fold change /veh CAPN14 (11732068_a_at) / RFU TMCC2 (11721928_a_at) / Fold change /veh TMCC2 (11721928_a_at) / RFU IRGQ (11745062_a_at) / Fold change /veh IRGQ (11745062_a_at) / RFU FAM174B (11720279_a_at) / Fold change /veh FAM174B (11720279_a_at) / RFU TMPRSS4 (11748680_a_at) / Fold change /veh TMPRSS4 (11748680_a_at) / RFU FAM212B (11763350_a_at) / Fold change /veh FAM212B (11763350_a_at) / RFU PLEKHG5 (11743358_a_at) / Fold change /veh PLEKHG5 (11743358_a_at) / RFU ZSCAN30 (11745921_a_at) / Fold change /veh ZSCAN30 (11745921_a_at) / RFU CMKLR1 (11741424_a_at) / Fold change /veh CMKLR1 (11741424_a_at) / RFU LOC101060620 /// MAPK8IP1 (11723275_at) / Fold change /veh LOC101060620 /// MAPK8IP1 (11723275_at) / RFU SPTSSB (11747773_x_at) / Fold change /veh SPTSSB (11747773_x_at) / RFU PRSS12 (11739890_at) / Fold change /veh PRSS12 (11739890_at) / RFU BIN1 (11741810_x_at) / Fold change /veh BIN1 (11741810_x_at) / RFU WNT11 (11732464_a_at) / Fold change /veh WNT11 (11732464_a_at) / RFU C10orf10 (11716521_a_at) / Fold change /veh C10orf10 (11716521_a_at) / RFU C5orf56 (11738089_at) / Fold change /veh C5orf56 (11738089_at) / RFU CYB561 (11721691_x_at) / Fold change /veh CYB561 (11721691_x_at) / RFU ANKRD19P (11752326_a_at) / Fold change /veh ANKRD19P (11752326_a_at) / RFU OR2T12 /// OR2T33 /// OR2T8 (11738714_s_at) / Fold change /veh OR2T12 /// OR2T33 /// OR2T8 (11738714_s_at) / RFU VCAN (11748164_a_at) / Fold change /veh VCAN (11748164_a_at) / RFU JSRP1 (11732532_at) / Fold change /veh JSRP1 (11732532_at) / RFU KRTAP10-11 (11738290_x_at) / Fold change /veh KRTAP10-11 (11738290_x_at) / RFU MYO3A (11730013_a_at) / Fold change /veh MYO3A (11730013_a_at) / RFU EBF3 (11725865_a_at) / Fold change /veh EBF3 (11725865_a_at) / RFU CAMK2N1 (11719241_x_at) / Fold change /veh CAMK2N1 (11719241_x_at) / RFU C5orf56 (11738088_a_at) / Fold change /veh C5orf56 (11738088_a_at) / RFU OLFML3 (11715873_a_at) / Fold change /veh OLFML3 (11715873_a_at) / RFU LOC100653217 /// NTM (11731650_a_at) / Fold change /veh LOC100653217 /// NTM (11731650_a_at) / RFU MAPK11 (11762145_a_at) / Fold change /veh MAPK11 (11762145_a_at) / RFU FIZ1 (11724087_x_at) / Fold change /veh FIZ1 (11724087_x_at) / RFU OASL (11726364_x_at) / Fold change /veh OASL (11726364_x_at) / RFU SOX15 (11748057_x_at) / Fold change /veh SOX15 (11748057_x_at) / RFU CD79A (11719716_a_at) / Fold change /veh CD79A (11719716_a_at) / RFU HIST1H1D (11736915_at) / Fold change /veh HIST1H1D (11736915_at) / RFU CASKIN2 (11723855_a_at) / Fold change /veh CASKIN2 (11723855_a_at) / RFU LOC730098 (11760151_x_at) / Fold change /veh LOC730098 (11760151_x_at) / RFU OR4N2 (11742367_at) / Fold change /veh OR4N2 (11742367_at) / RFU PRRT2 (11749266_a_at) / Fold change /veh PRRT2 (11749266_a_at) / RFU SNX32 (11753110_a_at) / Fold change /veh SNX32 (11753110_a_at) / RFU CDHR5 (11726645_a_at) / Fold change /veh CDHR5 (11726645_a_at) / RFU RCAN1 (11760418_a_at) / Fold change /veh RCAN1 (11760418_a_at) / RFU FAM167A (11723789_a_at) / Fold change /veh FAM167A (11723789_a_at) / RFU FAM26E (11764081_at) / Fold change /veh FAM26E (11764081_at) / RFU ISYNA1 (11749810_s_at) / Fold change /veh ISYNA1 (11749810_s_at) / RFU ACY1 (11761880_at) / Fold change /veh ACY1 (11761880_at) / RFU 11764098_at / Fold change /veh 11764098_at / RFU SAMD14 (11745864_x_at) / Fold change /veh SAMD14 (11745864_x_at) / RFU NPB (11741838_a_at) / Fold change /veh NPB (11741838_a_at) / RFU TMPRSS6 (11731388_a_at) / Fold change /veh TMPRSS6 (11731388_a_at) / RFU KRTAP10-2 (11738614_at) / Fold change /veh KRTAP10-2 (11738614_at) / RFU ARHGAP8 /// PRR5-ARHGAP8 (11727945_x_at) / Fold change /veh ARHGAP8 /// PRR5-ARHGAP8 (11727945_x_at) / RFU KRTAP5-7 /// NADSYN1 (11734609_at) / Fold change /veh KRTAP5-7 /// NADSYN1 (11734609_at) / RFU RASL12 (11751679_a_at) / Fold change /veh RASL12 (11751679_a_at) / RFU CDKN2B (11736163_a_at) / Fold change /veh CDKN2B (11736163_a_at) / RFU PRF1 (11729649_at) / Fold change /veh PRF1 (11729649_at) / RFU, ZNF638 /// ZNF638-IT1 / Fold change vs veh, ZNF638 /// ZNF638-IT1 / RFU, PANK3 / Fold change vs veh, PANK3 / RFU, SH3YL1 / Fold change vs veh, SH3YL1 / RFU, ZEB2 / Fold change vs veh, ZEB2 / RFU, NRIP1 / Fold change vs veh, NRIP1 / RFU, PTTG1IP / Fold change vs veh, PTTG1IP / RFU, CAPN2 / Fold change vs veh, CAPN2 / RFU, MED14 / Fold change vs veh, MED14 / RFU, SNORA58 / Fold change vs veh, SNORA58 / RFU, C1orf63 / Fold change vs veh, C1orf63 / RFU, LRRFIP1 / Fold change vs veh, LRRFIP1 / RFU, NDUFAF7 / Fold change vs veh, NDUFAF7 / RFU, SLC12A2 / Fold change vs veh, SLC12A2 / RFU, IBTK / Fold change vs veh, IBTK / RFU, ESF1 / Fold change vs veh, ESF1 / Fold change vs veh, TMEM50B / RFU, TAOK1 / Fold change vs veh, TAOK1 / RFU, ACBD3 / Fold change vs veh, ACBD3 / RFU, TMA16 / Fold change vs veh, TMA16 / RFU, RWDD3 / Fold change vs veh, RWDD3 / RFU, BCAT1 / Fold change vs veh, BCAT1 / RFU, EDEM3 / Fold change vs veh, EDEM3 / RFU, TMEM33 / Fold change vs veh, TMEM33 / RFU, WDR75 / Fold change vs veh, WDR75 / RFU, AHCTF1 / Fold change vs veh, AHCTF1 / RFU, TFRC / Fold change vs veh, TFRC / RFU, ZDHHC17 / Fold change vs veh, ZDHHC17 / RFU, NOM1 / Fold change vs veh, NOM1 / RFU, ARL8B / Fold change vs veh, ARL8B / RFU, ZBTB11 / Fold change vs veh, ZBTB11 / RFU, TAMM41 / Fold change vs veh, TAMM41 / RFU, KIAA1704 /// LOC100996395 / Fold change vs veh, KIAA1704 /// LOC100996395 / RFU, ING1 / Fold change vs veh, ING1 / RFU, TRMT61B / Fold change vs veh, TRMT61B / RFU, FUBP3 / Fold change vs veh, FUBP3 / RFU, TP53 / Fold change vs veh, TP53 / RFU, TNKS2 / Fold change vs veh, TNKS2 / RFU, ZFP14 / Fold change vs veh, ZFP14 / RFU, ACTR2 / Fold change vs veh, ACTR2 / RFU, PPP3R1 / Fold change vs veh, PPP3R1 / RFU, PIK3R1 / Fold change vs veh, PIK3R1 / RFU, HNRNPA1 / Fold change vs veh, HNRNPA1 / RFU, RNF170 / Fold change vs veh, RNF170 / RFU, ZNF28 / Fold change vs veh, ZNF28 / RFU, RNGTT / Fold change vs veh, RNGTT / RFU, OGT / Fold change vs veh, OGT / RFU, BRD1 / Fold change vs veh, BRD1 / RFU, MARS / Fold change vs veh, MARS / RFU, ZNF655 / Fold change vs veh, ZNF655 / RFU, FAHD1 / Fold change vs veh, FAHD1 / RFU, BDP1 / Fold change vs veh, BDP1 / RFU, LRRCC1 / Fold change vs veh, LRRCC1 / RFU, ARID1A / Fold change vs veh, ARID1A / RFU, ZNF146 / Fold change vs veh, ZNF146 / RFU, ZNF330 / Fold change vs veh, ZNF330 / RFU, GPN3 / Fold change vs veh, GPN3 / RFU, C9orf123 / Fold change vs veh, C9orf123 / RFU, N4BP2L2 / Fold change vs veh, N4BP2L2 / RFU, ARFIP1 / Fold change vs veh, ARFIP1 / RFU, FAM179B / Fold change vs veh, FAM179B / RFU, BCL10 / Fold change vs veh, BCL10 / RFU, UHRF1BP1L / Fold change vs veh, UHRF1BP1L / RFU, BET1 / Fold change vs veh, BET1 / RFU, CNOT2 / Fold change vs veh, CNOT2 / RFU, ZNF268 / Fold change vs veh, ZNF268 / Fold change vs veh, ZNF507 / RFU, DGCR2 / Fold change vs veh, DGCR2 / RFU, WDSUB1 / Fold change vs veh, WDSUB1 / Fold change vs veh, HSP90B1 /// MIR3652 / RFU, ADSS / Fold change vs veh, ADSS / RFU, GK / Fold change vs veh, GK / RFU, ZNF148 / Fold change vs veh, ZNF148 / RFU, TAF9 / Fold change vs veh, TAF9 / RFU, SLC1A5 / Fold change vs veh, SLC1A5 / RFU, SLMO2 / Fold change vs veh, SLMO2 / RFU, ABCC4 / Fold change vs veh, ABCC4 / RFU, LOC101060439 /// RAP1B / Fold change vs veh, LOC101060439 /// RAP1B / RFU, RFX7 / Fold change vs veh, RFX7 / RFU, GTPBP10 / Fold change vs veh, GTPBP10 / RFU, CNEP1R1 / Fold change vs veh, CNEP1R1 / RFU, BIVM-ERCC5 /// ERCC5 / Fold change vs veh, BIVM-ERCC5 /// ERCC5 / RFU, ILF3 / Fold change vs veh, ILF3 / RFU 11762660_at / Fold change /veh 11762660_at / RFU VCAN (11757783_s_at) / Fold change /veh VCAN (11757783_s_at) / RFU DDX43 (11728927_at) / Fold change /veh DDX43 (11728927_at) / RFU KRT8 (11758188_x_at) / Fold change /veh KRT8 (11758188_x_at) / RFU NKD1 (11759106_at) / Fold change /veh NKD1 (11759106_at) / RFU SRD5A1 (11742802_a_at) / Fold change /veh SRD5A1 (11742802_a_at) / RFU TPSAB1 /// TPSB2 (11721975_s_at) / Fold change /veh TPSAB1 /// TPSB2 (11721975_s_at) / RFU GSTM3 (11746129_a_at) / Fold change /veh GSTM3 (11746129_a_at) / RFU IL23R (11737362_x_at) / Fold change /veh IL23R (11737362_x_at) / RFU TMEM51 (11727254_a_at) / Fold change /veh TMEM51 (11727254_a_at) / RFU PIWIL2 (11732686_x_at) / Fold change /veh PIWIL2 (11732686_x_at) / RFU ORM1 (11744905_x_at) / Fold change /veh ORM1 (11744905_x_at) / RFU CCDC152 (11743942_at) / Fold change /veh CCDC152 (11743942_at) / RFU ECM1 (11717891_a_at) / Fold change /veh ECM1 (11717891_a_at) / RFU IL23R (11748794_a_at) / Fold change /veh IL23R (11748794_a_at) / RFU TNFAIP8L3 (11732012_x_at) / Fold change /veh TNFAIP8L3 (11732012_x_at) / RFU MBOAT4 (11741988_at) / Fold change /veh MBOAT4 (11741988_at) / RFU 11764193_at / Fold change /veh 11764193_at / RFU TMEM53 (11763286_at) / Fold change /veh TMEM53 (11763286_at) / RFU MAGEB2 (11727129_at) / Fold change /veh MAGEB2 (11727129_at) / RFU TMEM200A (11744735_a_at) / Fold change /veh TMEM200A (11744735_a_at) / RFU CCDC152 (11751479_a_at) / Fold change /veh CCDC152 (11751479_a_at) / RFU FAM211A (11726209_a_at) / Fold change /veh FAM211A (11726209_a_at) / RFU RGS16 (11746705_a_at) / Fold change /veh RGS16 (11746705_a_at) / RFU VCAN (11755009_s_at) / Fold change /veh VCAN (11755009_s_at) / RFU RHOB (11743442_s_at) / Fold change /veh RHOB (11743442_s_at) / RFU RGS16 (11720943_a_at) / Fold change /veh RGS16 (11720943_a_at) / RFU RGS16 (11720944_at) / Fold change /veh RGS16 (11720944_at) / RFU, VPS4B / Fold change vs veh, VPS4B / RFU, CREB1 / Fold change vs veh, CREB1 / RFU, DNAJC13 / Fold change vs veh, DNAJC13 / RFU, GNAQ / Fold change vs veh, GNAQ / RFU, CDK5R1 / Fold change vs veh, CDK5R1 / RFU, ZRANB3 / Fold change vs veh, ZRANB3 / RFU, CUL4A / Fold change vs veh, CUL4A / RFU, CCNY / Fold change vs veh, CCNY / RFU, UFL1 / Fold change vs veh, UFL1 / RFU, COG3 / Fold change vs veh, COG3 / RFU, DIAPH2 / Fold change vs veh, DIAPH2 / RFU, SKA2 / Fold change vs veh, SKA2 / RFU, AFF3 / Fold change vs veh, AFF3 / RFU, LMF1 / Fold change vs veh, LMF1 / RFU, IPO11 / Fold change vs veh, IPO11 / RFU, DFFB / Fold change vs veh, DFFB / RFU, FOXP1 / Fold change vs veh, FOXP1 / RFU, CARD8 / Fold change vs veh, CARD8 / RFU, STRN3 / Fold change vs veh, STRN3 / RFU, ADK / Fold change vs veh, ADK / RFU, RASSF2 / Fold change vs veh, RASSF2 / RFU, WIPF1 / Fold change vs veh, WIPF1 / RFU, LARP1B / Fold change vs veh, LARP1B / RFU, RASA1 / Fold change vs veh, RASA1 / RFU, RB1 / Fold change vs veh, RB1 / RFU, PPFIA1 / Fold change vs veh, PPFIA1 / RFU, MAT2A / Fold change vs veh, MAT2A / RFU, CCT5 / Fold change vs veh, CCT5 / RFU, WDR92 / Fold change vs veh, WDR92 / RFU, CUX1 / Fold change vs veh, CUX1 / RFU, TTC7A / Fold change vs veh, TTC7A / RFU, TMEM135 / Fold change vs veh, TMEM135 / RFU, DEPTOR / Fold change vs veh, DEPTOR / RFU, CPM / Fold change vs veh, CPM / RFU, DNAJB6 / Fold change vs veh, DNAJB6 / RFU, CACNA2D3 / Fold change vs veh, CACNA2D3 / RFU, DTX4 / Fold change vs veh, DTX4 / RFU, TFCP2 / Fold change vs veh, TFCP2 / RFU, GMCL1 /// GMCL1P1 / Fold change vs veh, GMCL1 /// GMCL1P1 / RFU, AEBP2 / Fold change vs veh, AEBP2 / RFU, SNHG1 /// SNORD22 /// SNORD25 /// SNORD26 /// SNORD27 /// SNORD28 /// SNORD29 /// SNORD31 / Fold change vs veh, SNHG1 /// SNORD22 /// SNORD25 /// SNORD26 /// SNORD27 /// SNORD28 /// SNORD29 /// SNORD31 / Fold change (Aza/veh), C12orf56 (ProbeSet 11735607_a_at) / Fold change (ACY-1035/veh), C12orf56 (ProbeSet 11735607_a_at) / Fold change (Aza/veh), FGFR1OP (ProbeSet 11751329_s_at) / Fold change (ACY-1035/veh), FGFR1OP (ProbeSet 11751329_s_at) / Fold change (Aza/veh), VPS36 (ProbeSet 11739960_a_at) / Fold change (ACY-1035/veh), VPS36 (ProbeSet 11739960_a_at) / RFU SYPL1 (11715823_x_at) / Fold change /veh SYPL1 (11715823_x_at) / RFU IGFBP7 (11715501_s_at) / Fold change /veh IGFBP7 (11715501_s_at) / RFU REEP3 (11722064_at) / Fold change /veh REEP3 (11722064_at) / RFU IGLL1 (11728026_x_at) / Fold change /veh IGLL1 (11728026_x_at): dose or concentration left out as unconfirmed
Conditions: MV-4-11 cells, 48 hours

SMILES: Nc1ncn([C@@H]2O[C@H](CO)[C@@H](O)[C@H]2O)c(=O)n1 [azacitidine]
- RFU GIMAP4 (11747438_a_at): 6.50 RFU
